Reference: article PMC9161374 (Science Translational Medicine, 2022)
“And” between values parts separate entries of the source, which are not always exact repeats. Equal values may be shown once.

Tests used:
[1] = tested on: SARS-CoV-2 (Delta, B.1.617.2); assay: microbe, parasite or virus in culture; type: cell-based; conditions: for % Inhibition: delta
[2] = tested on: SARS-CoV-2 (B.1) in Huh7 cells; assay: Anti-SARS-CoV-2 activity in Huh7 cells (viral yield by qRT-PCR); type: cell-based; conditions: B.1, MOI 0.05, 48 h
[3] = CCK-8 cell viability assay; type: cell-based, African green monkey; conditions: African green monkey; Vero E6 cells, 48 h, CCK8
Summary of the method: (§1)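 Vero E6 cells, 20,000/well, exposed to compound at 0–200 μM (0, 0.01, 0.1, 1, 5, 10, 50, 75, 100, 200 μM) for 48 h; viability read by CCK-8 and expressed as percentage versus drug concentration, mean ± SD.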

[4] = tested on: Vero E6 cells; assay: CCK-8 cell viability assay; type: cell-based, African green monkey; conditions: individual replicate values, Fig.S4
Summary of the method: as §1

[5] = Permeability and efflux ratio in Caco-2 cells; type: in vitro ADME; conditions: human
Excerpt: ATV019, and ATV020 in Caco-2 cells.
Compound Caco-2 AB/BA (Papp (10-6 cm/s)) a Efflux ratio

[6] = Tissue distribution study in rats; type: in vivo, Sprague Dawley rats; conditions: rat, oral 100 mg/kg, individual animals, 100 mg/kg
Experimental: Three rats in each group were anesthetized at 1-, 4-, and 24-hours post-dosing. Blood samples were collected into the heparinized tubes which containing PhosSTOP and DTNB and centrifuged. Tissue samples, including liver, kidney, and lung were harvested after perfusion with saline and immediately homogenized for further analysis as previously described ([64]). […] For RMP and RTP determination, 50 μL of plasma or homogenate was immediately added to 150 μL of 2% formic acid and 5 μL of 10 μM ^13C,^15N-adenosine triphosphate (ATP) aqueous solution, then vortexed thoroughly and centrifuged at 4°C. Supernatant in a volume of 180 μL was mixed with an equivalent volume of water for solid-phase extraction (SPE) with a weak anion exchange plate (Waters Oasis WAX μElution plate). Finally, the eluate was gently evaporated to dryness under a gentle stream of air, and the residue was reconstituted with 100 μL H2O for analysis on a Waters Positive Pressure-96 processor.

**Q.** For `CC(C)C(=O)OC[C@H]1O[C@@](C#N)(c2ccc3c(N)ncnn23)[C@H](O)[C@@H]1O` [ATV006], which inhibition at 1 µM ([1]; Severe acute respiratory syndrome coronavirus 2, Vero C1008, delta, 1 uM, Vero E6, replicates) is on record?
**A.** 94.7%

**Q.** And the inhibition at 2 µM ([1]; Severe acute respiratory syndrome coronavirus 2, Vero C1008, delta, 2 uM, Vero E6, replicates)?
**A.** 96.7%

**Q.** What about the inhibition at 5 µM ([1]; Severe acute respiratory syndrome coronavirus 2, Vero C1008, delta, 5 uM, Vero E6, replicates) of the same compound?
**A.** 95.5%

**Q.** And the inhibition at 10 µM ([1]; Severe acute respiratory syndrome coronavirus 2, Vero C1008, delta, 10 uM, Vero E6, replicates)?
**A.** 99.9%

**Q.** What about the inhibition at 50 µM ([1]; Severe acute respiratory syndrome coronavirus 2, Vero C1008, delta, 50 uM, Vero E6, replicates) of the same compound?
**A.** 99.9%

**Q.** And the EC90 ([1]; Severe acute respiratory syndrome coronavirus 2, Vero C1008, read-out: EC90 (Confidence 95%), Vero-E6, Delta B.1.617.2)?
**A.** 0.506 µM

**Q.** And the “% Inhibition” value ([1]; 0.25 uM, Vero E6, replicates)?
**A.** 17.4307%

**Q.** And the “% Inhibition” value ([1]; 0.5 uM, Vero E6, replicates)?
**A.** 86.6826%

**Q.** And the “% Inhibition” value ([1]; 1 uM, Vero E6, replicates)?
**A.** 92.7523%

**Q.** And the “% Inhibition” value ([1]; 2 uM, Vero E6, replicates)?
**A.** 95.2669%

**Q.** What about the “% Inhibition” value ([1]; 5 uM, Vero E6, replicates) of the same compound?
**A.** 93.5585%

**Q.** And the “% Inhibition” value ([1]; 10 uM, Vero E6, replicates)?
**A.** 99.4329%

**Q.** And the “% Inhibition” value ([1]; 50 uM, Vero E6, replicates)?
**A.** 99.3835%

**Q.** And the EC50 ([2]; Severe acute respiratory syndrome coronavirus 2, Huh-7, read-out: EC50 (Confidence 95%) in Huh7 cells)?
**A.** 1.63 µM

**Q.** And the EC90 ([2]; Severe acute respiratory syndrome coronavirus 2, Huh-7, read-out: EC90 (Confidence 95%) in Huh7 cells)?
**A.** 1.96 µM

**Q.** What about the CC50 at 48 h [3] of the same compound?
**A.** 128 µM

**Q.** And the “cell viability (% of control)” value ([4]; 0.01 μM compound, 0.01 µM)?
**A.** 93.4165 % of control and 118.52 % of control and 111.314 % of control

**Q.** What about the “cell viability (% of control)” value ([4]; 0.1 μM compound, 0.1 µM) of the same compound?
**A.** 114.92 % of control and 109.106 % of control and 122.304 % of control

**Q.** What about the “cell viability (% of control)” value ([4]; 1 μM compound, 1 µM) of the same compound?
**A.** 103.338 % of control and 92.7243 % of control and 89.4018 % of control

**Q.** What about the “cell viability (% of control)” value ([4]; 2 μM compound, 2 µM) of the same compound?
**A.** 94.6163 % of control and 92.5859 % of control and 102 % of control

**Q.** And the “cell viability (% of control)” value ([4]; 5 μM compound, 5 µM)?
**A.** 130.333 % of control and 131.994 % of control and 107.906 % of control

**Q.** And the “cell viability (% of control)” value ([4]; 10 μM compound, 10 µM)?
**A.** 124.057 % of control and 118.52 % of control and 118.981 % of control

**Q.** What about the “cell viability (% of control)” value ([4]; 50 μM compound, 50 µM) of the same compound?
**A.** 93.4165 % of control and 89.4165 % of control

**Q.** And the “cell viability (% of control)” value ([4]; 75 μM compound, 75 µM)?
**A.** 60.8815 % of control and 65.7193 % of control and 58.2133 % of control

**Q.** And the “cell viability (% of control)” value ([4]; 100 μM compound, 100 µM)?
**A.** 50.7027 % of control and 56.7073 % of control and 50.0144 % of control

**Q.** And the “cell viability (% of control)” value ([4]; 200 μM compound, 200 µM)?
**A.** 35.664 % of control and 47.0944 % of control and 42.1024 % of control

**Q.** And the efflux ratio [5]?
**A.** 1.7

**Q.** What about the Papp A→B ([5]; AB) of the same compound?
**A.** 0.51 ×10⁻⁶ cm/s

**Q.** What about the Papp B→A ([5]; BA) of the same compound?
**A.** 0.87 ×10⁻⁶ cm/s

**Q.** What about the “Cmax, GS-441525 in brain” value ([6]; 1h) of the same compound?
**A.** 0.717 nmol/kg and 1.164 nmol/kg and 1.176 nmol/kg

**Q.** And the “Cmax, GS-441525 in kidney” value ([6]; 1h)?
**A.** 220.56 nmol/kg and 166.84 nmol/kg and 182.64 nmol/kg

**Q.** And the “Cmax, GS-441525 in liver” value ([6]; 1h)?
**A.** 56.04 nmol/kg and 36.188 nmol/kg and 53.92 nmol/kg

**Q.** What about the “Cmax, GS-441525 in lung” value ([6]; 1h) of the same compound?
**A.** 49 nmol/kg and 29.492 nmol/kg and 44.72 nmol/kg

**Q.** What about the “Cmax, RTP in kidney” value ([6]; 1h) of the same compound?
**A.** 0.0784 nmol/kg and 0 nmol/kg and 0.0835 nmol/kg

**Q.** And the “Cmax, RTP in liver” value ([6]; 1h)?
**A.** 0.279 nmol/kg and 1.085 nmol/kg and 1.739 nmol/kg

**Q.** What about the “Cmax, RTP in lung” value ([6]; 1h) of the same compound?
**A.** 0.167 nmol/kg and 0.107 nmol/kg and 0.1 nmol/kg

**Q.** And the “Cmax, GS-441525 in brain” value ([6]; 4h)?
**A.** 0.208 nmol/kg and 0.227 nmol/kg and 0.506 nmol/kg

**Q.** What about the “Cmax, GS-441525 in kidney” value ([6]; 4h) of the same compound?
**A.** 49.24 nmol/kg and 31.336 nmol/kg and 40.16 nmol/kg

**Q.** And the “Cmax, GS-441525 in liver” value ([6]; 4h)?
**A.** 21.084 nmol/kg and 14.292 nmol/kg and 18.936 nmol/kg

**Q.** And the “Cmax, GS-441525 in lung” value ([6]; 4h)?
**A.** 10.048 nmol/kg and 8.088 nmol/kg and 8.604 nmol/kg

**Q.** What about the “Cmax, RTP in kidney” value ([6]; 4h) of the same compound?
**A.** 0.354 nmol/kg and 0.345 nmol/kg and 0.186 nmol/kg

**Q.** What about the “Cmax, RTP in liver” value ([6]; 4h) of the same compound?
**A.** 1.765 nmol/kg and 0.82 nmol/kg and 0.878 nmol/kg

**Q.** And the “Cmax, RTP in lung” value ([6]; 4h)?
**A.** 0.328 nmol/kg and 0.343 nmol/kg and 0.26 nmol/kg

**Q.** What about the “Cmax, GS-441525 in brain” value ([6]; 24h) of the same compound?
**A.** 0 nmol/kg (2×) and 0.0506 nmol/kg

**Q.** And the “Cmax, GS-441525 in kidney” value ([6]; 24h)?
**A.** 0.54 nmol/kg and 7 nmol/kg and 0.459 nmol/kg

**Q.** What about the “Cmax, GS-441525 in liver” value ([6]; 24h) of the same compound?
**A.** 0.243 nmol/kg and 2.843 nmol/kg and 0.303 nmol/kg

**Q.** And the “Cmax, GS-441525 in lung” value ([6]; 24h)?
**A.** 0.136 nmol/kg and 1.289 nmol/kg and 0.0964 nmol/kg

**Q.** And the “Cmax, RTP in kidney” value ([6]; 24h)?
**A.** 0.0664 nmol/kg and 0.068 nmol/kg and 0 nmol/kg

**Q.** And the “Cmax, RTP in liver” value ([6]; 24h)?
**A.** 0.325 nmol/kg and 0.223 nmol/kg and 0.759 nmol/kg

**Q.** And the “Cmax, RTP in lung” value ([6]; 24h)?
**A.** 0.191 nmol/kg and 0.249 nmol/kg and 0 nmol/kg
